Data published in ChEMBL document CHEMBL5338725, “New Glucosamine-Based TLR4 Agonists: Design, Synthesis, Mechanism of Action, and In Vivo Activity as Vaccine Adjuvants” (J Med Chem, 2023).
One block for each compound: values may come before it. Calls of active or inactive are those of the source. The calls are words filed in the database; no cut-off is given here.

What was measured:
[1] = Cytotoxicity against PMA-differentiated human THP1-Xblue cells assessed as reduction in cell viability at 0.1 to 25 uM incubated for 18 hrs by MTT assay; format: toxicity, cell-based; conditions: dose 0.1-25 µM
[2] = molecular target: Toll-like receptor 4 (Homo sapiens) (UniProt O00206); experiment: Agonist activity at human TLR4 in HEK-Blue hTLR4 cells at 0.1 to 25 uM incubated for 18 hrs by SEAP reporter gene based Quanti-blue assay; format: cell-based; conditions: filed as agonist, dose 0.1-25 µM
[3] = molecular target: Toll-like receptor 4 (Homo sapiens) (UniProt O00206); experiment: Activation of TLR4 in PMA-differentiated human THP1-Xblue cells assessed as induction of TNFalpha release at 25 uM incubated for 6 hrs by ELISA method; format: cell-based; conditions: filed as activator
RAW-Blue = experiment: Activation of NF-kappaB/AP-1 transcriptional activity in mouse RAW-Blue cells at 0.1 uM incubated for 18 hrs by quanti-blue/SEAP-based spectrophotometry analysis; format: cell-based; conditions: filed as activator
Mus musculus [4] = experiment: Immuno-adjuvant activity in OVA immunized C57BL/6J mouse model assessed as increase in anti-OVA IgG2b antibody at 10 ug, sc administered on day 0 and as booster dose on day 21 and measured after 42 days by ELISA; format: functional, organism-based; conditions: dose 10.0 µg, time 42.0 day
THP1-Xblue [5] = experiment: Activation of […] in PMA-differentiated human THP1-Xblue cells assessed as p-IRF3 translocation from cytosol to nucleus at 25 uM measured after 2 to 4 hrs by immunofluorescence analysis; format: cell-based; conditions: time 2-4 hrs
[6] = molecular target: Toll-like receptor 4 (Homo sapiens) (UniProt O00206); experiment: Activation of TLR4 in PMA-differentiated human THP1-Xblue cells assessed as induction of IL-1beta release at 25 uM by incubated for 6 hrs ELISA method; format: cell-based; conditions: filed as activator
[7] = molecular target: NACHT, LRR and PYD domains-containing protein 3 (Homo sapiens) (UniProt Q96P20); experiment: Activation of NLRP3 inflammasome in PMA-differentiated human THP1-Xblue cells assessed as IL-1beta production at 25 uM preincubated for 1 hr with MCC950 followed by compound addition and measured after 6 hrs by ELISA method; format: cell-based
[8] = molecular target: Toll-like receptor 4 (Homo sapiens) (UniProt O00206); experiment: Activation of TLR4 in PMA-differentiated human THP1-Xblue cells assessed as induction of IL-1beta release incubated for 6 hrs by ELISA method; format: cell-based; conditions: filed as activator, dose 0.1-25 µM
[9] = molecular target: Toll-like receptor 4 (Homo sapiens) (UniProt O00206); experiment: Activation of TLR4 in PMA-differentiated human THP1-Xblue cells assessed as induction of IL-6 secretion at 0.1 to 25 uM by incubated for 6 hrs ELISA method; format: cell-based; conditions: dose 0.1-25 µM
THP1-Xblue [10] = experiment: Activation of NF-kappaB pathway in PMA-differentiated human THP1-Xblue cells assessed p65 translocation from cytosol to nucleus at 25 uM incubated for 4 hrs by immunofluorescence analysis; format: cell-based
Mus musculus [11] = experiment: Immuno-adjuvant activity in OVA immunized C57BL/6J mouse model assessed as anti-OVA […] antibody production at 10 ug, sc administered on day 0 and as booster dose on day 21 and measured after 42 days by ELISA; format: functional, organism-based; conditions: dose 10.0 µg, time 42.0 day
[12] = molecular target: MAP kinase p38 (Homo sapiens) (UniProt O15264+Q15759+Q16539+P53778); experiment: Activation of p38 MAPK phosphorylation in PMA-differentiated human THP1-Xblue cells at 25 uM incubated for 1.5 to 2.5 hrs by Western blot analysis; format: cell-based; conditions: filed as activator, time 1.5-2.5 hrs
Mus musculus [13] = experiment: Immuno-adjuvant activity in OVA immunized C57BL/6J mouse model assessed as increase in anti-OVA IgG antibody at 10 ug, sc administered on day 0 and as booster dose on day 21 and measured on day 42 by ELISA; format: functional, organism-based; conditions: dose 10.0 µg
PBMC = experiment: Cytotoxicity against human PBMC cells assessed as reduction in cell viability at 0.1 to 25 uM incubated for 18 hrs by MTT assay; format: toxicity, cell-based; conditions: dose 0.1-25 µM
THP1-Xblue [14] = experiment: Activation of NF-kappaB/AP-1 transcriptional activity in human THP1-Xblue cells at 10 uM incubated for 18 hrs by quanti-blue/SEAP-based spectrophotometry analysis; format: cell-based; conditions: filed as activator
Mus musculus [15] = experiment: Immuno-adjuvant activity in OVA immunized C57BL/6J mouse model assessed as increase in anti-OVA IgG1 antibody at 10 ug, sc administered on day 0 and as booster dose on day 21 and measured after 42 days by ELISA; format: functional, organism-based; conditions: dose 10.0 µg, time 42.0 day
[16] = molecular target: Toll-like receptor 4 (Homo sapiens) (UniProt O00206); experiment: Agonist activity at TLR4 in human PBMC assessed as induction of TNF production incubated for 6 hrs by ELISA method; format: cell-based; conditions: filed as agonist, dose 10-25 µM
[17] = molecular target: Toll-like receptor 4 (Homo sapiens) (UniProt O00206); experiment: Agonist activity at TLR4 in human PBMC assessed as induction of IL-1beta production incubated for 6 hrs by ELISA method; format: cell-based; conditions: filed as agonist, dose 10-25 µM
Mus musculus [18] = experiment: Immuno-adjuvant activity in OVA immunized C57BL/6J mouse model assessed as increase in anti-OVA IgG2c antibody at 10 ug, sc administered on day 0 and as booster dose on day 21 and measured after 42 days by ELISA; format: functional, organism-based; conditions: dose 10.0 µg, time 42.0 day
HEK-Blue hTLR4 = experiment: Agonist activity at human TLR4 in HEK-Blue hTLR4 cells at 100 ng/ml incubated for 18 hrs by SEAP reporter gene based Quanti-blue assay; format: cell-based; conditions: filed as agonist
THP1-Xblue [19] = experiment: Activation of NF-KappaB/AP-1 signalling pathway in PMA-differentiated human THP-1 X-blue cells assessed as induction of SEAP release at 0.1 to 25 uM incubated for 18 hrs by QUANTI-Blue assay; format: cell-based; conditions: dose 0.1-25 µM

Chain of Toll-like receptor 4 (Homo sapiens) (O00206 whole entry, the tested form may be a part): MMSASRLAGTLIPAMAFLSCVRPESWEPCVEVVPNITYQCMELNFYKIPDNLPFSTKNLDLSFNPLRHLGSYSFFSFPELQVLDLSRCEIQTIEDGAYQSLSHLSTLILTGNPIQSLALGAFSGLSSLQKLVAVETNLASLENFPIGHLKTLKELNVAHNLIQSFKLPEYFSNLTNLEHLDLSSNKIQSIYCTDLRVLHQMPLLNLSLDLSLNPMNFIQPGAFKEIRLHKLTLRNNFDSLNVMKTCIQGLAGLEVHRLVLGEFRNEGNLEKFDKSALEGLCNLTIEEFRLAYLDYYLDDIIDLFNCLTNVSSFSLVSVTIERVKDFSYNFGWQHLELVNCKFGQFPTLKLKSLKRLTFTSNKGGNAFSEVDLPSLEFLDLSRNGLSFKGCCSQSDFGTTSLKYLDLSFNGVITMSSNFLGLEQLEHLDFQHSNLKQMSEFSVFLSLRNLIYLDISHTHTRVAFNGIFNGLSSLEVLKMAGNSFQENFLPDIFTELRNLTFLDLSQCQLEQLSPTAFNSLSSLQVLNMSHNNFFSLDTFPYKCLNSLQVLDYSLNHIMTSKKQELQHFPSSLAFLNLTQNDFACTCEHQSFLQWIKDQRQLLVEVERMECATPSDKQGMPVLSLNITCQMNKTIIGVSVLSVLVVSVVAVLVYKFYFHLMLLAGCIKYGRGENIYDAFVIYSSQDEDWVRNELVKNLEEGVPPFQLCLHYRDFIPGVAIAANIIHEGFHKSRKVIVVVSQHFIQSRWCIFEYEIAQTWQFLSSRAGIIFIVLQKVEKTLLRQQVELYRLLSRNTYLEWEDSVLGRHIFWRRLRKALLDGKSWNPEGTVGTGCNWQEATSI
Chain of NACHT, LRR and PYD domains-containing protein 3 (Homo sapiens) (Q96P20 whole entry, the tested form may be a part): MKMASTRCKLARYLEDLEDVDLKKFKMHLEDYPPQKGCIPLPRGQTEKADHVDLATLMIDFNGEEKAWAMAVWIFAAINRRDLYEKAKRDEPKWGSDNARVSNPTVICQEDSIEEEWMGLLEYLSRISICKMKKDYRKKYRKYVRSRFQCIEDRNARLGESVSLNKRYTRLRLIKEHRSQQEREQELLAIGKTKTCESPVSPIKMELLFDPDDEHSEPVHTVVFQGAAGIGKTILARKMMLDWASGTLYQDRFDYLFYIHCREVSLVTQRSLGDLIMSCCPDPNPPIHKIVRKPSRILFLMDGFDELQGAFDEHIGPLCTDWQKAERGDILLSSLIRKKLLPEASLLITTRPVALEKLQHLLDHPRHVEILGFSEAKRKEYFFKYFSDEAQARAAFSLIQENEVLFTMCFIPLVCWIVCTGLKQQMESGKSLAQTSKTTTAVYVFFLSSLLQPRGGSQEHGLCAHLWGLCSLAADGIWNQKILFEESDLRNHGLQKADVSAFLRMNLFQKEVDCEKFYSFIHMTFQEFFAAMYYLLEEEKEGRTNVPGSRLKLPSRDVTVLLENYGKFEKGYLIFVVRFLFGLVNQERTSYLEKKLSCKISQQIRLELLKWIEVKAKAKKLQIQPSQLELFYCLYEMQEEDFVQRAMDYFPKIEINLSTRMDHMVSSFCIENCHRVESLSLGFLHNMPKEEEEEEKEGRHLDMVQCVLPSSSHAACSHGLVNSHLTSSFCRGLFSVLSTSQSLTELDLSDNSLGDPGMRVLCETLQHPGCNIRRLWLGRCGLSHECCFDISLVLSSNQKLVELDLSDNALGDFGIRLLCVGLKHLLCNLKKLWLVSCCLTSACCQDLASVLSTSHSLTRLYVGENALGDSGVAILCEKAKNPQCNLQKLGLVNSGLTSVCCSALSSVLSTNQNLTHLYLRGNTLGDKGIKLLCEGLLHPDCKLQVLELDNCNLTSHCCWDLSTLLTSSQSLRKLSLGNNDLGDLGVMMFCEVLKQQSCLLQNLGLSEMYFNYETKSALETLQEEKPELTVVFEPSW

- Activity [2]: Active
Structure (SMILES): CCCCCCCCCCCC(=O)N[C@H]1[C@H](OC(=O)CCCCCCCCC)O[C@H](CO)[C@@H](OP(=O)([O-])[O-])[C@@H]1OC(=O)CCCCCCCCC.[Na+].[Na+]
- Activity [1]: Non-Toxic

- Activity [3]: Active
- Activity [6]: Active
- Activity [7]: inactive
- Activity [8]: Dose-Dependent Effect
- Activity [9]: inactive
- Activity [12]: Active
- Activity [2]: Active
- Activity [16]: Dose-Dependent Effect
- Activity [17]: Dose-Dependent Effect
Structure (SMILES): CCCCCCCCCCCC(=O)N[C@H]1[C@H](OC(=O)CCCCCCCCCCC)O[C@H](CO)[C@@H](OP(=O)([O-])[O-])[C@@H]1OC(=O)CCCCCCCCCCC.[Na+].[Na+]
- Activity (RAW-Blue): Active
- Activity (Mus musculus [4]): inactive
- Activity (THP1-Xblue [5]): inactive
- Activity (THP1-Xblue [10]): inactive
- Activity (Mus musculus [11]): inactive
- Activity (Mus musculus [13]): Active
- Activity (PBMC): Non-Toxic
- Activity (THP1-Xblue [14]): Active
- Activity (Mus musculus [15]): Active

Structure (SMILES): CCCCCCCCCCCC(=O)N[C@H]1[C@@H](OP(=O)(O)O)O[C@H](CO)[C@@H](OC(=O)CCCCCCCCCCC)[C@@H]1OC(=O)CCCCCCCCCCC
- Activity (Mus musculus [4]): inactive
- Activity (Mus musculus [11]): inactive
- Activity (Mus musculus [18]): inactive
- Activity (Mus musculus [15]): inactive

- Activity [3]: Active
- Activity [8]: Dose-Dependent Effect
- Activity [9]: inactive
- Activity [2]: Active
- Activity [16]: Dose-Dependent Effect
- Activity [17]: Dose-Dependent Effect
Structure (SMILES): CCCCCCCCCCCCCC(=O)O[C@@H]1O[C@H](CO)[C@@H](OP(=O)([O-])[O-])[C@H](OC(=O)CCCCCCCCCCCCC)[C@H]1NC(=O)CCCCCCCCCCC.[Na+].[Na+]
- Activity [1]: Non-Toxic
- Activity (PBMC): Non-Toxic

Structure (SMILES): CCCCCCCCCCCCCC(=O)O[C@H](CCCCCCCCCCC)CC(=O)N[C@H]1[C@H](OC[C@H]2O[C@H](O)[C@H](NC(=O)C[C@H](O)CCCCCCCCCCC)[C@@H](OC(=O)C[C@H](O)CCCCCCCCCCC)[C@@H]2O)O[C@H](CO)[C@@H](OP(=O)(O)O)[C@@H]1OC(=O)C[C@@H](CCCCCCCCCCC)OC(=O)CCCCCCCCCCCCC
- Activity (Mus musculus [4]): inactive
- Activity (HEK-Blue hTLR4): Active
- Activity (Mus musculus [18]): Active

Structure (SMILES): CCCCCCCCCCCC(=O)N[C@H]1[C@@H](OC(=O)CCCCCCCCCCC)O[C@H](CO)[C@@H](OP(=O)(O)O)[C@@H]1OC(=O)CCCCCCCCCCC
- Activity (THP1-Xblue [19]): inactive

- Activity [2]: Active
Structure (SMILES): CCCCCCCCCCCCCC(=O)N[C@H]1[C@H](OC(=O)CCCCCCCCCCCCC)O[C@H](CO)[C@@H](OP(=O)([O-])[O-])[C@@H]1OC(=O)CCCCCCCCCCCCC.[Na+].[Na+]
- Activity [1]: Non-Toxic
